Source: PubChem BioAssay (NCI)
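Interpolation was linear, between the two tested concentrations surrounding the appropriate level; five concentrations were tested over 48 hours in 96-well plates. Abbreviation: GI50, concentration required for 50% inhibition of growth. TGI denotes the concentration required for complete inhibition of growth.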

How the values were obtained:
Experiment in all cases: growth of human tumour cells (NCI), 48 h
[1] = tested on: NCI-H23 lung
[2] = tested on: HOP-62 NSCLC
[3] = tested on: SN12C renal
[4] = tested on: MDA-MB-435
[5] = tested on: EKVX NSCLC
[6] = tested on: A549 NSCLC
[7] = tested on: UACC-62 melanoma
[8] = tested on: OVCAR-5 ovarian
[9] = tested on: OVCAR-8 ovarian
[10] = tested on: HCC-2998 colon

Row | Compound | GI50 [1] [µM] | TGI [1] [µM] | GI50 [2] [µM] | TGI [2] [µM] | GI50 [3] [µM] | TGI [3] [µM] | GI50 [4] [µM] | TGI [4] [µM] | GI50 [5] [µM] | TGI [5] [µM] | GI50 [6] [µM] | TGI [6] [µM] | GI50 [7] [µM] | TGI [7] [µM] | GI50 [8] [µM] | TGI [8] [µM] | GI50 [9] [µM] | TGI [9] [µM] | GI50 [10] [µM] | TGI [10] [µM]
1 | C=CCCC(O)c1ccc(C(O)CCCCCCCCCCCC)o1 (stereo not given) | 19.3 | 34.7 | 19.1 | 34.8 | 18.3 | 34.2 | 17.8 | 34.7 | 23.9 | 50.4 | 17.7 | 39.2 | 17.3 | 32.8 | 21.5 | 41.4 | 13.5 | 30.3 | 21.4 | 37.2
2 | COc1ccc(-c2cc(-c3ccc(O)cc3)nc3nc(=S)[nH]c(N)c23)cc1 | 25 | 50.1 | 20.7 | 47.5 | 18.5 | 45.1 | 17.3 | 41.4 | 13.5 | 60.7 | 17.4 | 54.6 | 14.7 | 30.3 | 32 | 74.3 | 16.1 | 43.1 | 16.2 | 31.9
3 | CC(=O)Oc1ccc2ccc(=O)oc2c1OC(C)=O |  | > 100 |  | > 100 |  | > 100 |  | > 100 |  | > 100 |  | > 100 |  | > 100 |  | > 100 |  | > 100 |  | > 100
4 | COc1ccc(Nc2c3c4c(cccc4[nH]c2=O)C(=O)c2ccccc2-3)cc1 | < 0.0185 | > 38.9 | 0.0457 | > 100 | 0.0544 | > 100 | 0.0335 | > 100 | 0.0552 | > 100 | < 0.0221 | > 32.1 | 0.031 | > 100 | 0.0479 | > 90.1 | 0.0367 | > 100 | 0.0221 | 0.0482
5 | COc1ccc(/C=C2\N=C(c3ccccc3)N(c3cc(C(F)(F)F)ccc3Cl)C2=O)cc1OC | 90.6 | > 100 | 21.1 | 51 | 65.7 | > 100 | 40.6 | > 100 | > 100 | > 100 | 82 | > 100 | 64.3 | > 100 | > 100 | > 100 | 50.8 | > 100 | 65 | > 100
6 | CN(CCCCCl)P(=O)(OCc1ccc([N+](=O)[O-])o1)C(F)(F)c1ccc(CC(=O)N[C@@H](CC(=O)O)C(=O)N[C@@H](Cc2ccc(C(F)(F)P(=O)(OCc3ccc([N+](=O)[O-])o3)N(C)CCCCCl)cc2)C(N)=O)cc1 (stereo not given in full) | 51.7 | > 100 | > 100 | > 100 | > 100 | > 100 | 49.1 | > 100 | 67.7 | > 100 | > 100 | > 100 | 58 | > 100 | > 100 | > 100 | > 100 | > 100 | 24.5 | 56.7
